# From US7745422B2, “Bisphosphonate compounds and methods for bone resorption diseases, cancer, bone pain, immune disorders, and infectious diseases” (The Board of Trustees of the University of Illinois, priority 2004, dated 2010)
# Where two headings read alike, the source gives them in different places.
# Key:
# L. major FPPS [1] = target: T1, L. major FPPS (Leishmania major, UniProt Q4QBL1); assay: biochemical; assay type: biochemical
# T1 sequence (Q4QBL1 1-362): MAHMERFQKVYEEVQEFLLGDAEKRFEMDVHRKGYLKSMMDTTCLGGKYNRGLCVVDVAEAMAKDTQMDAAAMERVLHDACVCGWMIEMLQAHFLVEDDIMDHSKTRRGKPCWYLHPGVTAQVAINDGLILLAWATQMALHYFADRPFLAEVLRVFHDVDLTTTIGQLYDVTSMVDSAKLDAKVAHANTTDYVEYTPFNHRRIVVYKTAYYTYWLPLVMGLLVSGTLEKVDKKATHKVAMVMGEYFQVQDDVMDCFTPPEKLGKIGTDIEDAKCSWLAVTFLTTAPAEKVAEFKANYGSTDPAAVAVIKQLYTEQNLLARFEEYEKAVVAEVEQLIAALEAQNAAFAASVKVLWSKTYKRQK
# Excerpt: (§1) We then investigated the activity of each compound in inhibiting the FPPS from L. major, in Dictyostelium discoideum growth inhibition and in γδ T cell activation. We used the FPPS from L. major since this enzyme is the putative bisphosphonate target in several trypanosomatid species.
# human FPPS = target: T2, human FPPS (Homo sapiens, UniProt P14324); assay: human FPPS assay; assay type: biochemical
# T2 sequence (P14324 1-419): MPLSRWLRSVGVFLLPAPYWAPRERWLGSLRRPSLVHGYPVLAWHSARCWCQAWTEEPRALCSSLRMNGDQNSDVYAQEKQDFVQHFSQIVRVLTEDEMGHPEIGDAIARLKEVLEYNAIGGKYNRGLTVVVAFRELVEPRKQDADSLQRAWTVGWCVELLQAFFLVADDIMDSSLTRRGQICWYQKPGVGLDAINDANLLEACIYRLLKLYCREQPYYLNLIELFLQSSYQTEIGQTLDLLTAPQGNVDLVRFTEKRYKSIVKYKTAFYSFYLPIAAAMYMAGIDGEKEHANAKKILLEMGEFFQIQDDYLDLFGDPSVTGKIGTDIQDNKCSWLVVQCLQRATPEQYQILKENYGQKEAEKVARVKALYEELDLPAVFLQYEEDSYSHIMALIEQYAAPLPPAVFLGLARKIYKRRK
# [2] = target: T. brucei soluble vacuolar pyrophosphatase; assay: T. brucei soluble vacuolar pyrophosphatase inhibition; assay type: biochemical, Trypanosoma brucei; conditions: Table 5; read-out: (9) T. brucei soluble vacuolar pyrophosphatase IC50
# Excerpt: (§2) We have obtained data for selected bisphosphonate compounds against parasites including Trypanosoma brucei, Trypanosoma cruzi, and Leishmania major. […] See Table 5 (in some instances, the same data depicted elsewhere herein, e.g., in Table 1, may be presented again to facilitate comparative analysis).
# Vγ2Vδ2 T cells [3] = assay: gammadelta T cell stimulation (TNF-α release assay); assay type: cell-based, human
# Excerpt: as §1
# Dictyostelium discoideum = assay: D. discoideum cell growth inhibition; assay type: cell-based
# Excerpt: as §1
# fetal mouse metatarsals = assay: bone resorption assay: 45Ca2+ release from 17-day old fetal mouse metatarsals; assay type: cell-based; conditions: for IC50: Table 4
# Description: Compounds are tested in a bone resorption assay: ^45Ca^2+ release from 17-day old fetal mouse metatarsals (ref. 37).
# [4] = tested on: human nasopharyngeal carcinoma cells; assay: Toxicity testing in human nasopharyngeal carcinoma cells; assay type: cell-based; conditions: for IC50: read-out: (5) Toxicity IC50
# Description: We have obtained data for selected bisphosphonate compounds in the contexts of D. discoideum assays, human FPPS assays, gammadelta T cell stimulation assays, and bone resorption assays. […] Some toxicity testing was also performed. See Table 4 (in some instances, the same data depicted elsewhere herein, e.g., in Table 1, may be presented again to facilitate comparative analysis).
# Vγ2Vδ2 T cells [5] = conditions: TNF-α release, footnote b: data from Ref. 30; read-out: gammadelta T cell stimulation, EC50; cited from earlier work
# pyrophosphatase enzymes = assay: Pyrophosphatase inhibition; assay type: biochemical
# Excerpt: We explored the hypothesis of whether analogs of pyrophosphate could block pyrophosphatase enzymes and/or inhibit cellular growth or function. We used certain bisphosphonate compounds that are currently applied in bone resorption therapy.
# parasite cell growth = assay: Parasite cell growth inhibition; assay type: cell-based
# Excerpt: We explored the hypothesis of whether analogs of pyrophosphate could block pyrophosphatase enzymes and/or inhibit cellular growth or function. We used certain bisphosphonate compounds that are currently applied in bone resorption therapy. The compounds included pamidronate (Aredia®, Novartis), alendronate (Fosamax®, Merck), and risedronate (Actonel®, Procter & Gamble). […] Without wishing to be bound by a particular theory, the compounds appeared to act as inhibitors of isoprenoid biosynthesis (FIG. 6).
# cutaneous leishmaniasis = assay: Treatment of cutaneous leishmaniasis in mice; assay type: in vivo
# Excerpt: The average lesion size in treated mice was reduced during a time period of several weeks and in a dose-dependent manner relative to […] mice.
# T. cruzi = assay: Activity against T. cruzi; assay type: cell-based; conditions: Trypanosoma cruzi; Table 5; read-out: (8) T. cruzi IC50
# Excerpt: as §2
# L. major FPPS [6] = target: T1, L. major FPPS; conditions: read-out: L. major FPPS Ki; Table 1, footnote a: data from Ref. 17; cited from earlier work
# [7] = Table 1 and text, read-out: L. major FPPS Ki
# [8] = Table 5, read-out: (7) L. major FPPS Ki
# [9] = Table 4, read-out: (2) human FPPS IC50
# [10] = TNF-α release, Table 1 and text, read-out: gammadelta T cell stimulation, EC50
# [11] = Table 4, read-out: (3) gammadelta T cell stimulation EC50
# [12] = Table 4, read-out: (1) D. discoideum IC50
# [13] = cell growth inhibition, Table 1 and text, read-out: D. discoideum IC50
# [14] = Table 3, additional testing, read-out: gammadelta T cell stimulation EC50
# [15] = Homo sapiens, T-cell, read-out: (3) gammadelta T cell stimulation EC50
# [16] = Homo sapiens, T-cell, read-out: gammadelta T cell stimulation EC50
# [17] = Homo sapiens, T-cell, read-out: gammadelta T cell stimulation, EC50
# [18] = Dictyostelium discoideum, read-out: (1) D. discoideum IC50
# [19] = Dictyostelium discoideum, read-out: D. discoideum IC50
structure (smiles),measurement,setting,value
Cc1cccc(Cc2ccc[n+](CC(O)(P(=O)([O-])O)P(=O)(O)O)c2)c1 (stereo not drawn) [Compound 344],Ki,L. major FPPS [1]; [7],0.07 µM
same,Ki,L. major FPPS [1]; [8],0.07 µM
same,IC50,human FPPS; [9],17 µM
same,IC50,[2],78 µM
same,activity in gammadelta T cell stimulation,Vγ2Vδ2 T cells [3]; TNF-α release,poor activity
same,EC50,Vγ2Vδ2 T cells [3]; [10],140 µM
same,EC50,Vγ2Vδ2 T cells [3]; [11],140 µM
same,IC50,Dictyostelium discoideum; [12],8.5 µM
same,IC50,Dictyostelium discoideum; [13],9.9 µM
O=P([O-])(O)C(O)(C[n+]1cccc(Cc2ccccc2)c1)P(=O)(O)O (stereo not drawn) [Compound 335],Ki,L. major FPPS [1]; [7],0.16 µM
same,Ki,L. major FPPS [1]; [8],0.16 µM
same,IC50,[2],70 µM
same,activity in gammadelta T cell stimulation,Vγ2Vδ2 T cells [3]; TNF-α release,poor activity
same,EC50,Vγ2Vδ2 T cells [3]; [10],430 µM
same,EC50,Vγ2Vδ2 T cells [3]; [14],63.4 µM
same,EC50,Vγ2Vδ2 T cells [3]; [11],430 µM
same,IC50,Dictyostelium discoideum; [12],11 µM
same,IC50,Dictyostelium discoideum; [13],8.5 µM
O=P([O-])(O)C(O)(C[n+]1cccc(-c2ccccc2)c1)P(=O)(O)O (stereo not drawn) [Compound 300],IC50,fetal mouse metatarsals; Mus musculus,0.41 µM
same,IC50,human FPPS,1.7 µM
same,IC50,[4],5.4 µg/mL
same,IC50,[2],35 µM
same,EC50,Vγ2Vδ2 T cells [3]; [15],3.7 µM
same,EC50,Vγ2Vδ2 T cells [3]; [16],2.1 µM
same,EC50,Vγ2Vδ2 T cells [3]; [17],3.7 µM
same,IC50,Dictyostelium discoideum; [18],2.8 µM
same,IC50,Dictyostelium discoideum; [19],2.8 µM
O=P([O-])(O)C(O)(C[n+]1cccc(F)c1)P(=O)(O)O (stereo not drawn) [Compound 461],Ki,L. major FPPS [1]; [8],0.05 µM
same,potency in bone resorption,fetal mouse metatarsals,very potent
same,IC50,fetal mouse metatarsals; Mus musculus,0.075 µM
same,EC50,Vγ2Vδ2 T cells [3]; [15],2.7 µM
same,EC50,Vγ2Vδ2 T cells [3]; [16],2.7 µM
same,IC50,Dictyostelium discoideum; [18],3.7 µM
NCCCC(O)(P(=O)(O)O)P(=O)(O)O [alendronate],EC50,Vγ2Vδ2 T cells [5],52 µM
same,inhibition of pyrophosphatases,pyrophosphatase enzymes,did not appear necessarily to inhibit
same,parasite cell growth inhibition,parasite cell growth,did inhibit
NCCC(O)(P(=O)(O)O)P(=O)(O)O [pamidronate],inhibition of pyrophosphatases,pyrophosphatase enzymes,did not appear necessarily to inhibit
same,parasite cell growth inhibition,parasite cell growth,did inhibit
same,treating cutaneous leishmaniasis,cutaneous leishmaniasis; mice,effective
same,average lesion size,"cutaneous leishmaniasis; treated mice, several weeks, dose-dependent",reduced
Cc1ccc[n+](CC(O)(P(=O)([O-])O)P(=O)(O)O)c1 (stereo not drawn) [Compound 297],Ki,L. major FPPS [1]; [7],0.038 µM
same,IC50,fetal mouse metatarsals,0.22 µM
same,(5) Toxicity IC50,[4],5.3 µg/mL
same,EC50,Vγ2Vδ2 T cells [3]; [10],4.6 µM
same,EC50,Vγ2Vδ2 T cells [3]; [14],4.9 µM
same,IC50,Dictyostelium discoideum; [12],2.8 µM
same,IC50,Dictyostelium discoideum; [13],1.5 µM
O=P(O)(O)C(O)(Cc1cccnc1)P(=O)(O)O [risedronate],EC50,Vγ2Vδ2 T cells [5],6.2 µM
same,inhibition of pyrophosphatases,pyrophosphatase enzymes,did not appear necessarily to inhibit
same,parasite cell growth inhibition,parasite cell growth,did inhibit
O=P([O-])(O)C(O)(C[n+]1ccccc1)P(=O)(O)O (stereo not drawn) [Compound 278],IC50,T. cruzi,3.07 µg/mL
same,IC50,fetal mouse metatarsals; Mus musculus,0.67 µM
same,IC50,human FPPS,1.6 µM
same,IC50,[4],300 µg/mL
same,EC50,Vγ2Vδ2 T cells [3]; [15],5.1 µM
same,EC50,Vγ2Vδ2 T cells [3]; [16],4.8 µM
same,EC50,Vγ2Vδ2 T cells [3]; [17],5.1 µM
same,IC50,Dictyostelium discoideum; [18],2.6 µM
same,IC50,Dictyostelium discoideum; [19],2.1 µM
O=P([O-])(O)C(O)(C[n+]1cccc(Br)c1)P(=O)(O)O (stereo not drawn) [Compound 484],IC50,human FPPS,2.5 µM
same,EC50,Vγ2Vδ2 T cells [3]; [16],4.6 µM
same,IC50,Dictyostelium discoideum; [18],3.5 µM
O=P(O)(O)C(NC1CCCCCC1)P(=O)(O)O [incadronate],EC50,Vγ2Vδ2 T cells [5],15 µM
same,IC50,Dictyostelium discoideum; [13],1.6 µM
same,Ki,L. major FPPS [6],0.023 µM
COc1ccc[n+](CC(O)(P(=O)([O-])O)P(=O)(O)O)c1 (stereo not drawn) [Compound 446],Ki,L. major FPPS [1]; [7],0.03 µM
same,IC50,fetal mouse metatarsals,0.37 µM
same,EC50,Vγ2Vδ2 T cells [3]; [10],4.6 µM
same,IC50,Dictyostelium discoideum; [12],6 µM
same,IC50,Dictyostelium discoideum; [13],6 µM
O=P([O-])(O)C(O)(C[n+]1cccc(-c2ccc(O)cc2)c1)P(=O)(O)O (stereo not drawn) [Compound 359],Ki,L. major FPPS [1]; [7],0.075 µM
same,EC50,Vγ2Vδ2 T cells [3]; [10],24 µM
same,EC50,Vγ2Vδ2 T cells [3]; [11],24 µM
same,IC50,Dictyostelium discoideum; [12],2.9 µM
same,IC50,Dictyostelium discoideum; [13],2.9 µM
CCCCc1ccc[n+](CC(O)(P(=O)([O-])O)P(=O)(O)O)c1 (stereo not drawn) [Compound 445],Ki,L. major FPPS [1]; [7],0.02 µM
same,EC50,Vγ2Vδ2 T cells [3]; [10],5.2 µM
same,EC50,Vγ2Vδ2 T cells [3]; [14],2.5 µM
same,EC50,Vγ2Vδ2 T cells [3]; [11],5.2 µM
same,IC50,Dictyostelium discoideum; [12],3 µM
same,IC50,Dictyostelium discoideum; [13],2.9 µM
O=P([O-])(O)C(C[n+]1cccc(I)c1)P(=O)(O)O (stereo not drawn) [Compound 542],IC50,human FPPS; [9],1.2 µM
same,EC50,Vγ2Vδ2 T cells [3]; [11],12 µM
same,IC50,Dictyostelium discoideum; [12],1.7 µM
O=P([O-])(O)C(O)(C[n+]1cccc(O)c1)P(=O)(O)O (stereo not drawn) [Compound 595],IC50,human FPPS; [9],2.7 µM
same,EC50,Vγ2Vδ2 T cells [3]; [11],210 µM
same,IC50,Dictyostelium discoideum; [12],49 µM
